Assay results as given in US20250144067A1, “PERSONALIZED STARVATION THERAPY FOR CANCER” (Faeth Therapeutics, Inc., priority 2021, published 2025).
Where a name gives a salt, the structure may show the parent alone.

Experiments:
[1] = system: NCI-H292 lung cancer cells; assay: FDA drug screening, complete media vs cholesterol-free media with simvastatin (TABLE 2); format: cell-based, human; details: for Cholesterol-free media + simvastatin (0.04 μM) / Complete Media: NCI-H292 cells
[2] = system: NCI-H292 lung cancer cells; assay: FDA drug screening, complete media vs cholesterol-free media without statin (TABLE 1); format: cell-based, human
[3] = drug in cholesterol-free media with simvastatin 0.04 μM
[4] = complete media vs cholesterol-free media + simvastatin (0.04 μM), >0 enhanced anti-cancer activity, about 0 neutral, <0 antagonist
[5] = NCI-H292 cells, cholesterol-free media without statin
[6] = complete vs cholesterol-free media, greater than 0 enhanced anti-cancer activity, about 0 neutral, below 0 antagonists
[7] = FDA library drug in cholesterol-free media with simvastatin 0.04 μM
[8] = FDA library drug in complete media
[9] = Complete minus Cholesterol-free, greater than 0 enhanced anti-cancer activity, about 0 neutral, below 0 antagonists
[10] = NCI-H292 cells in cholesterol-free media without statin
[11] = NCI-H292 cells in complete media
[12] = complete media vs cholesterol-free media + simvastatin (0.04 μM), […]
[13] = Complete minus Cholesterol-free, […]
[14] = FDA drug library screen, cholesterol-free media with simvastatin 0.04 μM
[15] = FDA drug library screen, complete media
[16] = complete media minus cholesterol-free media + simvastatin, >0 enhanced anti-cancer activity, about 0 neutral, <0 antagonist
[17] = Complete minus Cholesterol-free, greater than 0 enhanced anti-cancer activity, about 0 neutral, below 0 antagonist
[18] = NCI-H292 cells, FDA drug library screen, cholesterol-free media without statin
[19] = NCI-H292 cells, FDA drug library screen, complete media
[20] = cholesterol-free media with simvastatin 0.04 μM, FDA drug library screen (TABLE 2)
[21] = complete media, FDA drug library screen (TABLE 2)
[22] = complete media minus cholesterol-free media + simvastatin (0.04 μM), >0 enhanced anti-cancer activity, about 0 neutral, <0 antagonist
[23] = NCI-H292 cells, cholesterol-free media without statin, FDA drug library screen
[24] = NCI-H292 cells, complete media, FDA drug library screen
[25] = complete vs cholesterol-free media, >0 enhanced anti-cancer activity, about 0 neutral, <0 antagonist
[26] = Complete minus Cholesterol-free, >0 enhanced anti-cancer activity, about 0 neutral, <0 antagonist
[27] = complete media minus cholesterol-free media + simvastatin, […]
[28] = cholesterol-free media with simvastatin 0.04 μM, […]
[29] = cholesterol-free media with simvastatin 0.04 μM, cell growth value in FDA drug screen
[30] = complete media, cell growth value in FDA drug screen

CCC1=C(C)CN(C(=O)NCCc2ccc(S(=O)(=O)NC(=O)N[C@H]3CC[C@H](C)CC3)cc2)C1=O [Glimepiride]
Cholesterol-free media + simvastatin (0.04 μM) [1, 3]: 0.9904
Complete Media ([1]; drug in complete media): 0.7847
Difference [1, 4]: −0.21
Cholesterol-free [2, 5]: 1.246
Complete ([2]; NCI-H292 cells, complete media): 0.8316
Difference [2, 6]: −0.41

Cc1cnc(C(=O)NCCc2ccc(S(=O)(=O)NC(=O)NC3CCCCC3)cc2)cn1 [Glipizide]
Cholesterol-free media + simvastatin (0.04 μM) [1, 3]: 1.42
Complete Media ([1]; drug in complete media): 1.2
Difference [1, 4]: −0.22
Cholesterol-free [2, 5]: 1.844
Complete ([2]; NCI-H292 cells, complete media): 1.46
Difference [2, 6]: −0.38

COc1ccc2c(c1)C(=O)N(CCc1ccc(S(=O)(=O)NC(=O)NC3CCCCC3)cc1)C(=O)C2(C)C [Gliquidone]
Cholesterol-free media + simvastatin (0.04 μM) [1, 7]: 1.335
Complete Media [1, 8]: 1.002
Difference [1, 4]: −0.33
Difference [2, 9]: −0.68
Cholesterol-free [2, 10]: 1.724
Complete [2, 11]: 1.039

O=C([O-])[C@H](O)[C@@H](O)[C@H](O)[C@H](O)CO.[Na+] [Gluconate (sodium)]
Cholesterol-free media + simvastatin (0.04 μM) [1, 7]: 1.406
Complete Media [1, 8]: 0.9873
Difference [1, 12]: −0.42
Difference [2, 13]: −0.62
Cholesterol-free [2, 10]: 1.575
Complete [2, 11]: 0.95

Cl.N[C@H]1C(O)O[C@H](CO)[C@@H](O)[C@@H]1O (stereo partly shown) [Glucosamine (hydrochloride)]
Cholesterol-free media + simvastatin (0.04 μM) [1, 14]: 0.9525
Complete Media [1, 15]: 1.178
Difference [1, 16]: 0.23
Difference [2, 17]: −0.17
Cholesterol-free [2, 18]: 1.116
Complete [2, 19]: 0.9464

N[C@H]1C(O)O[C@H](CO)[C@@H](O)[C@@H]1O (stereo partly shown) [Glucosamine]
Cholesterol-free media + simvastatin (0.04 μM) [1, 7]: 1.916
Difference [1, 4]: −0.77
Cholesterol-free [2, 5]: 1.17
Complete ([2]; NCI-H292 cells, complete media): 0.7725
Difference [2, 6]: −0.40

O=C(CCCc1ccccc1)OCC(COC(=O)CCCc1ccccc1)OC(=O)CCCc1ccccc1 [Glycerol phenylbutyrate]
Cholesterol-free media + simvastatin (0.04 μM) [1, 7]: 1.737
Complete Media [1, 8]: 1.34
Difference [1, 4]: −0.40
Difference [2, 17]: −0.17
Cholesterol-free [2, 18]: 1.054
Complete [2, 19]: 0.8817

OCC(O)CO [Glycerol]
Cholesterol-free media + simvastatin (0.04 μM) [1, 20]: 1.066
Complete Media [1, 21]: 1.039
Difference [1, 22]: −0.03
Cholesterol-free [2, 23]: 0.984
Complete [2, 24]: 1.096
Difference [2, 25]: 0.11

NCC(=O)O [Glycine]
Cholesterol-free media + simvastatin (0.04 μM) [1, 7]: 1.249
Complete Media [1, 8]: 0.983
Difference [1, 4]: −0.27
Difference [2, 9]: −0.56
Cholesterol-free [2, 10]: 1.569
Complete [2, 11]: 1.011

C[N+]1(C)CCC(OC(=O)C(O)(c2ccccc2)C2CCCC2)C1 (stereo not shown) [Glycopyrrolate]
Cholesterol-free media + simvastatin (0.04 μM) [1, 14]: 2.314
Difference [1, 22]: −1.08
Difference [2, 26]: 0.02
Cholesterol-free [2, 23]: 0.8111
Complete [2, 24]: 0.8296

CC1(C)[C@@H](O[C@H]2O[C@H](C(=O)O)[C@@H](O)[C@H](O)[C@H]2O[C@@H]2O[C@H](C(=O)O)[C@@H](O)[C@H](O)[C@H]2O)CC[C@]2(C)[C@H]3C(=O)C=C4[C@@H]5C[C@@](C)(C(=O)O)CC[C@]5(C)CC[C@@]4(C)[C@]3(C)CC[C@@H]12 [Glycyrrhizic acid]
Cholesterol-free media + simvastatin (0.04 μM) [1, 14]: 1.042
Complete Media [1, 15]: 0.907
Difference [1, 4]: −0.13
Difference [2, 17]: −0.08
Cholesterol-free [2, 18]: 1.146
Complete [2, 19]: 1.061

CN1C2CCCC1CC(NC(=O)c1nn(C)c3ccccc13)C2 (stereo not shown) [Granisetron (Hydrochloride)]
Cholesterol-free media + simvastatin (0.04 μM) [1, 20]: 0.8994
Complete Media [1, 21]: 0.8536
Difference [1, 22]: −0.05
Difference [2, 26]: −0.26
Cholesterol-free [2, 5]: 1.123
Complete ([2]; NCI-H292 cells, complete media): 0.8639

C=C[C@@H]1C[C@]1(NC(=O)[C@@H]1C[C@@H]2CN1C(=O)[C@H](C(C)(C)C)NC(=O)O[C@@H]1C[C@H]1CCCCCc1nc3ccc(OC)cc3nc1O2)C(=O)[N-]S(=O)(=O)C1CC1.[K+] [Grazoprevir potassium salt]
Cholesterol-free media + simvastatin (0.04 μM) [1, 14]: 1.46
Complete Media [1, 15]: 1.827
Difference [1, 27]: 0.37
Difference [2, 13]: −0.06
Cholesterol-free [2, 23]: 1.089
Complete [2, 24]: 1.03

C=C[C@@H]1C[C@]1(NC(=O)[C@@H]1C[C@@H]2CN1C(=O)[C@H](C(C)(C)C)NC(=O)O[C@@H]1C[C@H]1CCCCCc1nc3ccc(OC)cc3nc1O2)C(=O)NS(=O)(=O)C1CC1.O [Grazoprevir]
Cholesterol-free media + simvastatin (0.04 μM) [1, 28]: 0.9215
Complete Media ([1]; complete media, […]): 0.9383
Difference [1, 27]: 0.02
Difference [2, 13]: −0.09
Cholesterol-free [2, 18]: 1.057
Complete [2, 19]: 0.9626

COC1=CC(=O)C[C@@H](C)[C@]12Oc1c(Cl)c(OC)cc(OC)c1C2=O [Griseofulvin]
Cholesterol-free media + simvastatin (0.04 μM) [1, 3]: 1.385
Complete Media ([1]; drug in complete media): 1.224
Difference [1, 4]: −0.16
Difference [2, 9]: −0.63
Cholesterol-free [2, 10]: 1.326
Complete [2, 11]: 0.6963

COc1ccccc1OC(=O)c1ccccc1OC(C)=O [Guacetisal]
Cholesterol-free media + simvastatin (0.04 μM) [1, 28]: 1.34
Complete Media ([1]; complete media, […]): 1.4
Difference [1, 27]: 0.06
Difference [2, 13]: −0.09
Cholesterol-free [2, 18]: 0.837
Complete [2, 19]: 0.7434

COc1ccccc1O [Guaiacol]
Cholesterol-free media + simvastatin (0.04 μM) [1, 7]: 2.295
Complete Media [1, 8]: 1.473
Difference [1, 4]: −0.82
Difference [2, 26]: −0.02
Cholesterol-free [2, 23]: 1.281
Complete [2, 24]: 1.265

Cc1ccc(C(C)C)cc2c(C)ccc1-2 [Guaiazulene]
Cholesterol-free media + simvastatin (0.04 μM) [1, 3]: 1.916
Complete Media ([1]; drug in complete media): 1.674
Difference [1, 4]: −0.24
Difference [2, 26]: −0.21
Cholesterol-free [2, 5]: 1.231
Complete ([2]; NCI-H292 cells, complete media): 1.025

COc1ccccc1OCC(O)CO (stereo not shown) [Guaifenesin]
Cholesterol-free media + simvastatin (0.04 μM) [1, 14]: 1.078
Complete Media [1, 15]: 1.326
Difference [1, 16]: 0.25
Cholesterol-free [2, 5]: 1.204
Complete ([2]; NCI-H292 cells, complete media): 0.8523
Difference [2, 6]: −0.35

N=C(N)NC(=O)Cc1c(Cl)cccc1Cl [Guanfacine (hydrochloride)]
Cholesterol-free media + simvastatin (0.04 μM) [1, 14]: 1.401
Complete Media [1, 15]: 1.965
Difference [1, 16]: 0.56
Cholesterol-free [2, 23]: 0.9809
Complete [2, 24]: 1.601
Difference [2, 25]: 0.62

N=C(N)N [Guanidine (hydrochloride)]
Cholesterol-free media + simvastatin (0.04 μM) [1, 3]: 1.136
Complete Media ([1]; drug in complete media): 0.9286
Difference [1, 4]: −0.21
Cholesterol-free [2, 23]: 0.9919
Complete [2, 24]: 1.237
Difference [2, 25]: 0.24

CC1(C)O[C@@H]2C[C@H]3[C@@H]4CCC5=CC(=O)CC[C@]5(C)[C@@]4(F)[C@@H](O)C[C@]3(C)[C@]2(C(=O)CCl)O1 [Halcinonide]
Cholesterol-free media + simvastatin (0.04 μM) [1, 29]: 0.5751
Complete Media [1, 30]: 0.6822
Difference [1, 16]: 0.11
Difference [2, 17]: −0.18
Cholesterol-free [2, 18]: 0.895
Complete [2, 19]: 0.7117

CCC(=O)O[C@]1(C(=O)CCl)[C@@H](C)C[C@H]2[C@@H]3C[C@H](F)C4=CC(=O)C=C[C@]4(C)[C@@]3(F)[C@@H](O)C[C@@]21C [Halobetasol (propionate)]
Cholesterol-free media + simvastatin (0.04 μM) [1, 20]: 0.5775
Complete Media [1, 21]: 0.585
Difference [1, 22]: 0.01
Difference [2, 17]: −0.18
Cholesterol-free [2, 18]: 0.7462
Complete [2, 19]: 0.5641

CCCCN(CCCC)CCC(O)c1cc2c(Cl)cc(Cl)cc2c2cc(C(F)(F)F)ccc12 (stereo not shown) [Halofantrine hydrochloride]
Cholesterol-free media + simvastatin (0.04 μM) [1, 7]: 1.233
Complete Media [1, 8]: 0.9282
Difference [1, 4]: −0.30
Cholesterol-free [2, 5]: 1.176
Complete ([2]; NCI-H292 cells, complete media): 0.7446
Difference [2, 6]: −0.43

O=C(CCCN1CCC(O)(c2ccc(Cl)cc2)CC1)c1ccc(F)cc1 [Haloperidol]
Cholesterol-free media + simvastatin (0.04 μM) [1, 29]: 0.8115
Complete Media [1, 30]: 0.843
Difference [1, 16]: 0.03
Cholesterol-free [2, 23]: 0.4782
Complete [2, 24]: 0.7598
Difference [2, 25]: 0.28

COC(=O)C[C@](O)(CCC(C)(C)O)C(=O)O[C@@H]1C(OC)=C[C@]23CCCN2CCc2cc4c(cc2[C@H]13)OCO4 [Harringtonine]
Cholesterol-free media + simvastatin (0.04 μM) [1, 20]: −0.01111
Complete Media [1, 21]: −0.002434
Difference ([1]; complete media minus cholesterol-free media + simvastatin (0.04 μM), […]): 0.01
Difference [2, 13]: −0.01
Cholesterol-free [2, 23]: 0.0181
Complete [2, 24]: 0.006818

O=Cc1ccc(O[C@@H]2O[C@H](CO)[C@@H](O)[C@@H](O)[C@H]2O)cc1 [Helicid]
Cholesterol-free media + simvastatin (0.04 μM) [1, 3]: 1.093
Complete Media ([1]; drug in complete media): 0.9239
Difference [1, 12]: −0.17
Difference [2, 13]: −0.20
Cholesterol-free [2, 5]: 1.202
Complete ([2]; NCI-H292 cells, complete media): 1.003
